Results reported in ChEMBL document CHEMBL1153676, “Muscarinic receptor probes based on amine congeners of pirenzepine and telenzepine” (Bioorg Med Chem Lett, 1992).

Experiments:
[1] = biological target: T1, Muscarinic acetylcholine receptor M1 (Rattus norvegicus) (UniProt P08482); assay: Percent reduction in specific binding of 0.5 nM [3H]N-methylscopolamine (NMS) to rat forebrain membranes following a 30 min pre-incubation at concentration of 0.5 uM; assay type: cell membranes; conditions: Membrane
T1 sequence (whole entry): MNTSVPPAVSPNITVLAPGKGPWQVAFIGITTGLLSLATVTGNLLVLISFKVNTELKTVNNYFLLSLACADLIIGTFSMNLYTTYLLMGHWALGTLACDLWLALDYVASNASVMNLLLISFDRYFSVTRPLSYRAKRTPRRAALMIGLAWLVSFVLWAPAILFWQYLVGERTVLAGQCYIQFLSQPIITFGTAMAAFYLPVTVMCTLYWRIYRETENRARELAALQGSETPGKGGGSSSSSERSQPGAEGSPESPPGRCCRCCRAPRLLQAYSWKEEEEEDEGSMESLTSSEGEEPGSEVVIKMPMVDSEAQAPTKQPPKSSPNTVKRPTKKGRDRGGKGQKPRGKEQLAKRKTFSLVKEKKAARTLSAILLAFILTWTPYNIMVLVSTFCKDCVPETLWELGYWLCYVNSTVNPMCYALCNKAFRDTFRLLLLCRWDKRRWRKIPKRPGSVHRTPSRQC

[2] = biological target: T2, Muscarinic acetylcholine receptor M2 (Rattus norvegicus, UniProt P10980); assay: Inhibitory constant by the inhibition of [3H]N-methylscopolamine (NMS) binding to Muscarinic acetylcholine receptor M2 of rat heart
T2 sequence (P10980 whole entry): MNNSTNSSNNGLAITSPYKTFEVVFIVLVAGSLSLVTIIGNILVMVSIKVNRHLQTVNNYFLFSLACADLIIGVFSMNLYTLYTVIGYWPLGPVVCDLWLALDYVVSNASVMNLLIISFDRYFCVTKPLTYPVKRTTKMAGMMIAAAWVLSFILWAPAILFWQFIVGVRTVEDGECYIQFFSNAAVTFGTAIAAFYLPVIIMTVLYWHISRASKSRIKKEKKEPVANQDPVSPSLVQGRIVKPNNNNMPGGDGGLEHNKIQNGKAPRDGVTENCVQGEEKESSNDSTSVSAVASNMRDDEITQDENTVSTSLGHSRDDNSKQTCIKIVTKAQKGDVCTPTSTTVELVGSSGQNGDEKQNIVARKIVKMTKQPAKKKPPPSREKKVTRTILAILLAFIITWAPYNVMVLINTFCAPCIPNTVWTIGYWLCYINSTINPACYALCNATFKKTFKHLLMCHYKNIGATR

[3] = biological target: T3, Muscarinic acetylcholine receptor M1 (Rattus norvegicus, UniProt P08482); assay: Inhibitory concentration was evaluated for irreversible inhibition at rat forebrain muscarinic receptor
T3 sequence (P08482 whole entry): T1 sequence (whole entry)

SMILES	Reduction [1]	Ki [2]	IC50 [3]
O=C1Nc2cccnc2N(C(=O)CN2CCN(CCCCCCCCNC(=S)Nc3cccc(N=C=S)c3)CC2)c2ccccc21	51.1%	–	–
Cc1scc2c1N(C(=O)CN1CCN(CCCCCCCCCCN)CC1)c1ccccc1NC2=O	–	3.7 nM	–
O=C1Nc2cccnc2N(C(=O)CN2CCN(CCCCCCCCCCNC(=S)Nc3cccc(N=C=S)c3)CC2)c2ccccc21	76%	–	0.15 nM
O=C1Nc2cccnc2N(C(=O)CN2CCN(CCCCCCCCCNC(=S)Nc3cccc(N=C=S)c3)CC2)c2ccccc21	48.7%	–	–
